Reference: patent publication US8697730B2, “5-lipoxygenase activating protein (FLAP) inhibitor” (Panmira Pharmaceuticals, LLC, priority 2007, dated 2014)
Read-outs that look alike come from different tables or passages of the source.

How the values were obtained:
[1] = Regional dosing study in rat; parameters: species or system Male Sprague-Dawley rats; conditions: in vivo
[2] = in vivo, po, 250 mg/kg
Description: Twenty-four hours following the final administration mice were placed into an enclosed Plexiglas chamber and exposed to CO2 for a period of 1-2 minutes or until breathing ceased. They were then removed and blood was taken via a cardiac puncture and cervical dislocation was performed. Subjects were next placed in a supine position and a midline incision made. All organs were inspected and the livers removed by careful dissection. Liver weights were recorded as well as any gross abnormalities.

pH solubility profile = assay type: physicochemical; conditions: 25 °C, thermodynamic from solid
urinary LTE4 production = assay: Phase 1 study, urinary LTE4; assay type: in vivo, human
Description: (§1) Pharmacodynamics: Whole blood ionophore-stimulated leukotriene LTB4 and urinary LTE4 production are assayed by ELISA and mass spectrometry, respectively.
(§2) Obtain pre-dose fasting blood samples for hematology determinations. Obtain pre-dose fasting blood samples for serum chemistry determinations. Obtain pre-dose blood samples (5 mL EDTA and 4 mL heparinized) for baseline PK and LTB4. Collect ‘spot’ urine prior to study drug administration for baseline (pre-dose) LTE4. Administer study drug. […] Collect blood samples (2 mL heparinized) for LTB4 at 0.5, 1, 2, 3, 4, 6, 8, and 12 hours. Collect urine for LTE4 for the following separate intervals: 0-3, 3-6, 6-9, and 9-12 hours. For twice daily dosing group (if conducted): administer study drug 12 hours±30 minutes after prior dose, preceded by ≧2 hours fast.
(§3) Obtain pre-dose fasting blood samples for hematology determinations. Obtain pre-dose fasting blood samples for serum chemistry determinations. […] Collect blood samples (2 mL heparinized) for LTB4 at 24 hours after the first study drug administration; 4 mL blood will be collected at this time point in the Single Dose Phase. Collect ‘spot’ urine sample for LTE4 at 24 and 36 hours after first study drug administration.
(§4) Obtain pre-dose blood samples (5 mL EDTA and 2 mL heparinized) for PK and LTB4. Collect pre-dose urine for LTE4. Administer study drug (last dose of drug). […] Collect blood samples (2 mL heparinized) for LTB4 at 0.5, 1, 2, 3, 4, 6, 8, and 12 hours. Collect urine for LTE4 for the following separate intervals: 0-3, 3-6, 6-9, and 9-12 hours after study drug administration.
(§5) Record vital signs 24 hours after Day 11 study drug administration. […] Collect blood sample (4 mL heparinized) for LTB4 at 24 hours after Day 11 study drug administration. Collect ‘spot’ urine sample for LTE4 at 24 hours after Day 11 study drug administration.
(§6) Whole blood ionophore-stimulated leukotriene LTB4 and urinary LTE4 production were assayed by ELISA and mass spectrometry, respectively.

[3] = Phase 1 study in healthy human volunteers, plasma pharmacokinetics; assay type: in vivo; conditions: for AUC(0-t): read-out: AUC0-24 (hr * mM) AVE ± SD; for Tmax: read-out: Tmax (hr) AVE ± SD; for half-life: read-out: t1/2 (hr) AVE ± SD (converted)
Description: The study is divided into two phases (Single and Multiple Dose Phases).
One cohort in the Multiple Dose Phase receives twice daily dosing.
Placebo solution to match. The finished aqueous solution is prepared in the clinical study site pharmacy within 24 hours of dosing. The study drug is stored at room temperature between 15-30° C. (59-86° F.) and protected from light.
Route of Administration: All doses are administered orally with approximately 100 mL of water rinse. Subjects are fasted for at least 8 hours prior to dosing and for 2 hours after dosing.
as §2, with “fast. […]” for “fast.”

CYP2C9 = CYP2C9 (Homo sapiens, UniProt P11712); assay: biochemical
in vivo = assay: in vivo; parameters: species or system female Beagle dogs; conditions: dog
Description: For comparison, an IV formulation was also tested. Table 18 summarizes the results of the experiments of administration of the various oral formulations to female beagle dogs.

[4] = tested on: whole blood ionophore-stimulated leukotriene LTB4; assay: Phase 1 study, whole blood ionophore-stimulated LTB4; assay type: in vivo, human
Description: as §1, §2, §3, §4, §5, §6

CYP2C19 = CYP2C19 (Homo sapiens, UniProt P33261); assay: biochemical
CYP2D6 = CYP2D6 (Homo sapiens, UniProt P10635); assay: biochemical
[5] = multiple dose, 450 mg daily, Day 1
[6] = multiple dose, 450 mg daily, Day 11
[7] = multiple dose, 1000 mg daily, Day 1
[8] = multiple dose, 1000 mg daily, Day 11
[9] = single dose 50 mg, oral solution
[10] = single dose 150 mg, oral solution
[11] = single dose 300 mg, oral solution
[12] = single dose 600 mg, oral solution
[13] = single dose 1000 mg, oral solution
[14] = both sexes, human, single dose 50 mg, oral solution, fasted healthy subjects
[15] = both sexes, human, single dose 150 mg, oral solution, fasted healthy subjects
[16] = both sexes, human, single dose 300 mg, oral solution, fasted healthy subjects
[17] = both sexes, human, single dose 600 mg, oral solution, fasted healthy subjects
[18] = both sexes, human, single dose 1000 mg, oral solution, fasted healthy subjects
[19] = male, human, multiple dose phase, Day 1, 150 mg, oral solution
[20] = male, human, multiple dose phase, Day 1, 450 mg, oral solution
[21] = male, human, multiple dose phase, Day 1, 1000 mg, oral solution

Chain of CYP2D6 (P10635 whole entry): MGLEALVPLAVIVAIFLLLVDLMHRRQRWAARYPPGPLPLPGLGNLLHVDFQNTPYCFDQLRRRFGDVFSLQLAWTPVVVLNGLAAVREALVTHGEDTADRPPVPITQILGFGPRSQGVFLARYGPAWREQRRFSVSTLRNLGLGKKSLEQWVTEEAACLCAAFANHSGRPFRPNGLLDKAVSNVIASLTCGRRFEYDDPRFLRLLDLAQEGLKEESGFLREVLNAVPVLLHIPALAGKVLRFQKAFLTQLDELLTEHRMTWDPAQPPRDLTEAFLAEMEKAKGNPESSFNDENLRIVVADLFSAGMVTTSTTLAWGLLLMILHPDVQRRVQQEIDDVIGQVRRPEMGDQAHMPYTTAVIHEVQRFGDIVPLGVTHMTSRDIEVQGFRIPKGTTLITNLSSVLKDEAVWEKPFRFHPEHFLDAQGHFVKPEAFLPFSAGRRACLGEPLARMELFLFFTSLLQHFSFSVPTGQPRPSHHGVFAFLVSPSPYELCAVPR
Chain of CYP2C19 (P33261 whole entry): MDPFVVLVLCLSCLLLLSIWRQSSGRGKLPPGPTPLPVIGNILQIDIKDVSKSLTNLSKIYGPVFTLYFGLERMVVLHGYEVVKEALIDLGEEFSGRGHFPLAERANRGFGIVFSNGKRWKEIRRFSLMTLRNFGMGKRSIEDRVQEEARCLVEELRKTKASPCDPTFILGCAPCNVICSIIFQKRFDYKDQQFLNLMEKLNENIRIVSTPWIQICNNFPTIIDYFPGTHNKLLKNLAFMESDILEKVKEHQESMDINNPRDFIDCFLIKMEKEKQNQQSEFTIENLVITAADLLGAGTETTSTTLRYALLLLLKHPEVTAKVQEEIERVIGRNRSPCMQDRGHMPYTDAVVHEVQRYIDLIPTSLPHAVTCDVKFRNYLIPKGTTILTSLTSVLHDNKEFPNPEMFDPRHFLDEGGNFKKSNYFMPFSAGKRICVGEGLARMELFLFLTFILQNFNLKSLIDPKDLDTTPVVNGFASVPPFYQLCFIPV
Chain of CYP2C9 (P11712 whole entry): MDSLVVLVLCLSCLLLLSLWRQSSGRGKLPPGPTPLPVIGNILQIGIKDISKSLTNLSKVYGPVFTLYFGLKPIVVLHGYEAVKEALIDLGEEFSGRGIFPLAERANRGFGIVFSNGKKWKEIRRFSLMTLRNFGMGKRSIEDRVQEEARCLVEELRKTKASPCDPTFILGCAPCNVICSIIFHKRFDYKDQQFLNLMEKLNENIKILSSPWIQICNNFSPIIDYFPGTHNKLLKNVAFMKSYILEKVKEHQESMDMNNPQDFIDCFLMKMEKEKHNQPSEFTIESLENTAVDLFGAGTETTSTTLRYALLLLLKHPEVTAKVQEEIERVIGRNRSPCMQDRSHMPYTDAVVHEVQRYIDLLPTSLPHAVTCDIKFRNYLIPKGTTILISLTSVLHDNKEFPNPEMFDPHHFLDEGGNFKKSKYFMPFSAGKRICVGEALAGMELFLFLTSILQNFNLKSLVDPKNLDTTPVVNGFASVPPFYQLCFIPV

- liver weight alteration ([2]; female, CD-1, mouse, 4 days): 9.1%
- solubility (pH solubility profile; aqueous medium, aqueous buffer, about pH 7, read-out: aqueous solubility): < 0.005 mg/mL
- solubility (pH solubility profile; basic media, pH 10, aqueous buffer, read-out: solubility in basic media): > 70 mg/mL
- AUC(0-t) [3, 14]: 5.4 ± 2.5 µM·h
- Cmax ([3]; both sexes, human, single dose 50 mg, oral solution, fasted healthy subjects, read-out: Cmax (mM) AVE ± SD): 0.00065 ± 0.00032 mM
- Tmax [3, 14]: 3 ± 0.8 h
- half-life [3, 14]: 7.7 ± 0.3 h
- AUC(0-t) [3, 15]: 15.9 ± 8.7 µM·h
- Cmax ([3]; both sexes, human, single dose 150 mg, oral solution, fasted healthy subjects, read-out: Cmax (mM) AVE ± SD): 0.0018 ± 0.0011 mM
- Tmax [3, 15]: 2.5 ± 0.5 h
- half-life [3, 15]: 10 ± 2 h
- AUC(0-t) [3, 16]: 25.8 ± 7.4 µM·h
- Cmax ([3]; both sexes, human, single dose 300 mg, oral solution, fasted healthy subjects, read-out: Cmax (mM) AVE ± SD): 0.0031 ± 0.0014 mM
- Tmax [3, 16]: 3.2 ± 1 h
- half-life [3, 16]: 12.3 ± 3.1 h
- AUC(0-t) [3, 17]: 54 ± 35.3 µM·h
- Cmax ([3]; both sexes, human, single dose 600 mg, oral solution, fasted healthy subjects, read-out: Cmax (mM) AVE ± SD): 0.0081 ± 0.0053 mM
- Tmax [3, 17]: 2 ± 0.6 h
- half-life [3, 17]: 8.8 ± 1.3 h
- AUC(0-t) [3, 18]: 85 ± 44 µM·h
- Cmax ([3]; both sexes, human, single dose 1000 mg, oral solution, fasted healthy subjects, read-out: Cmax (mM) AVE ± SD): 0.013 ± 0.005 mM
- Tmax [3, 18]: 3 ± 0.8 h
- half-life [3, 18]: 7.6 ± 4.6 h
- Cmax ([3]; both sexes, oral, profile that may be obtained from a single dose administration to a human, dose not stated, read-out: Cmax): ≤ 0.005 mM
- AUC(0-t) [3, 19]: 11.3 ± 5 µM·h
- Cmax ([3]; male, human, multiple dose phase, Day 1, 150 mg, oral solution, read-out: Cmax (mM) AVE ± SD): 0.0019 ± 0.0011 mM
- Tmax [3, 19]: 2.5 ± 0.5 h
- half-life [3, 19]: 9.2 ± 2 h
- AUC(0-t) [3, 20]: 34.2 ± 7.9 µM·h
- Cmax ([3]; male, human, multiple dose phase, Day 1, 450 mg, oral solution, read-out: Cmax (mM) AVE ± SD): 0.0047 ± 0.0022 mM
- Tmax [3, 20]: 2.7 ± 0.5 h
- half-life [3, 20]: 13.2 ± 3.9 h
- AUC(0-t) [3, 21]: 127 ± 50 µM·h
- Cmax ([3]; male, human, multiple dose phase, Day 1, 1000 mg, oral solution, read-out: Cmax (mM) AVE ± SD): 0.0144 ± 0.0051 mM
- Tmax [3, 21]: 2.3 ± 0.5 h
- half-life [3, 21]: 11.2 ± 5.1 h
- IC50 (CYP2C9): ≥ 50 µM
- AUCdose-adjusted (in vivo; iv, 2 mg/kg): 6.0
- AUC(0-inf) (in vivo; female, Beagle, iv, 2 mg/kg): 11900 ng·h/mL
- CLp (in vivo; female, Beagle, iv, 2 mg/kg): 2.9 mL/min/kg
- Cmax (in vivo; female, Beagle, iv, 2 mg/kg): 3200 ng/mL
- Tmax (in vivo; female, Beagle, iv, 2 mg/kg): 1.02 min
- Vd (in vivo; female, Beagle, iv, 2 mg/kg): 0.4 L/kg
- bioavailability (in vivo; female, Beagle, iv, 2 mg/kg): 100%
- half-life (in vivo; female, Beagle, iv, 2 mg/kg): 462 min
- Tmax (in vivo; female, Beagle, po, 5 mg/kg): 102 min
- IC50 (CYP2C19): 22 µM
- IC50 (CYP2D6): > 50 µM
Structure (SMILES): COc1ccc(-c2ccc(Cn3c(CC(C)(C)C(=O)O)c(SC(C)(C)C)c4cc(OCc5ccccn5)ccc43)cc2)cn1 [sodium 3-[5-(pyridin-2-ylmethoxy)-3-(2-methyl-2-propylthio)-1-[4-(2-methoxypyridin-5-yl)benzyl]-indol-2-yl]-2,2-dimethyl-propionate]
- site of absorption in words [1]: mainly absorbed in the upper gastrointestinal tract
- necropsy findings ([2]; mouse): no gross abnormalities
- LTE4 level at t = 24 hrs. (% of baseline) (urinary LTE4 production; [5]): 8.2 ± 4.3 % of baseline
- LTE4 level at t = 24 hrs. (% of baseline) (urinary LTE4 production; [6]): 2.8 ± 0.9 % of baseline
- LTE4 level at t = 24 hrs. (% of baseline) (urinary LTE4 production; [7]): 2.5 ± 0.6 % of baseline
- LTE4 level at t = 24 hrs. (% of baseline) (urinary LTE4 production; [8]): 2.3 ± 0.6 % of baseline
- LTE4 level at t = 24 hrs. (% of baseline) (urinary LTE4 production; [9]): 77 ± 26 % of baseline
- LTE4 level at t = 24 hrs. (% of baseline) (urinary LTE4 production; [10]): 23 ± 10 % of baseline
- LTE4 level at t = 24 hrs. (% of baseline) (urinary LTE4 production; [11]): 10 ± 5 % of baseline
- LTE4 level at t = 24 hrs. (% of baseline) (urinary LTE4 production; [12]): 8 ± 3 % of baseline
- LTE4 level at t = 24 hrs. (% of baseline) (urinary LTE4 production; [13]): 3 ± 0 % of baseline
- LTB4 level at t = 24 hrs. (% of baseline) [4, 5]: 24 ± 6.7 % of baseline
- LTB4 level at t = 24 hrs. (% of baseline) [4, 6]: 26 ± 7.4 % of baseline
- LTB4 level at t = 24 hrs. (% of baseline) [4, 7]: 2.7 ± 1.1 % of baseline
- LTB4 level at t = 24 hrs. (% of baseline) [4, 8]: 1.0 ± 0.6 % of baseline
- LTB4 level at t = 24 hrs. (% of baseline) [4, 9]: 75 ± 15 % of baseline
- LTB4 level at t = 24 hrs. (% of baseline) [4, 10]: 58 ± 18 % of baseline
- LTB4 level at t = 24 hrs. (% of baseline) [4, 11]: 36 ± 6.5 % of baseline
- LTB4 level at t = 24 hrs. (% of baseline) [4, 12]: 25 ± 8.7 % of baseline
- LTB4 level at t = 24 hrs. (% of baseline) [4, 13]: 23 ± 12 % of baseline
